Patent US8299048B2, “Hexahydrocyclopentyl[f]indazole sulfonamides and derivatives thereof as selective glucocorticoid receptor modulators” (Merck Sharp & Dohme Corp., priority 2008, dated 2012)
pEC50: −log10 of the molar value. Like-named read-outs stand apart in the source and are kept apart here.

Target: T1, human GR (Homo sapiens, UniProt P04150)
T1 sequence (P04150 1-777): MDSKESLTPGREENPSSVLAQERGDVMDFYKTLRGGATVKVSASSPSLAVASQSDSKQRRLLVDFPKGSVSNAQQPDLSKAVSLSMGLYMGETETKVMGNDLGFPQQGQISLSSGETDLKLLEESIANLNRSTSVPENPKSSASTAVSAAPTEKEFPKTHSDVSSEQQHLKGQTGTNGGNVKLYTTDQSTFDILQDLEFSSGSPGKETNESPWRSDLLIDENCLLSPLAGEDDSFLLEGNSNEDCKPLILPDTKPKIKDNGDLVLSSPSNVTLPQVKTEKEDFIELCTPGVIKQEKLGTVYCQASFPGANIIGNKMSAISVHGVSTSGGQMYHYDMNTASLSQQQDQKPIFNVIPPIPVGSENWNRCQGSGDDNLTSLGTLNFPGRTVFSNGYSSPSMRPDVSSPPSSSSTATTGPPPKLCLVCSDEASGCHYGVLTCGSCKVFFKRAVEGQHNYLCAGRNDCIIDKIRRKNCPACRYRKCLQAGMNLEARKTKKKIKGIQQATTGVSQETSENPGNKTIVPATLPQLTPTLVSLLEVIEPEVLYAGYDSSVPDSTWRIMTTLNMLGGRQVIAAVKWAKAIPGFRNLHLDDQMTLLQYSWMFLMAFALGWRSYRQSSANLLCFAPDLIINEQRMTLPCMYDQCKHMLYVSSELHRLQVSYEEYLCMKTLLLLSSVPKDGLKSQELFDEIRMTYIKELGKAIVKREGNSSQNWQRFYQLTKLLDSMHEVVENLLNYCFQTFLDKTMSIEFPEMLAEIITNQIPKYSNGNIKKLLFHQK
Experiment: Transrepression Assay (GITAR), TNFα-β-lactamase reporter in U937 cells
Format: cell-based
Design: U937 cells contain an endogenous glucocorticoid receptor (GR); endogenous in cells; host or cells: U937 cells stably transfected with the TNF-alpha promoter/beta-lactamase reporter
Conditions: for GITAR > GRAMM % SEP: GITAR Emax minus GRAMMER Emax; for pEC50: U937 cells, inflection point, read-out: Transrepression U937 Cells GITAR IP
Summary of the method: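 Stable TNF-α-promoter/β-lactamase U937 line, endogenous GR; 50,000 cells/well. Cmpd 30–45 min 37 °C → PMA 5 ng/ml + LPS 100 ng/ml final, 37 °C ~18 hr → CCF2-AM 70–90 min RT. 100 nM dex = 100%.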

[1] = U-937, U937 cells, maximum activity, read-out: Transrepression U937 Cells GITAR Emax
[2] = U-937, activity repressed by 100 nM dexamethasone alone set as 100%, read-out: maximal activity in the transrepression (GITAR) assay

GITAR > GRAMM % SEP [%] | pEC50 | Emax [1] [%] | Emax [2] [%] | Compound
9.3 | 6.22 | 15.9 | > 5 | COc1ccccc1CCN(C[C@H]1CCC2=Cc3c(cnn3-c3ccc(F)cc3)C[C@@]21C)S(=O)(=O)Cc1cccc(C(F)(F)F)c1 [Example 119, N-{[(4αR,5S)-1-(4-fluorophenyl)-4α-methyl-1,4,4α,5,6,7-hexahydrocyclopenta[f]indazol-5-yl]methyl}-N-[2-(2-methoxyphenyl)ethyl]-1-[3-(trifluoromethyl)phenyl]methanesulfonamide]
44.7 | 6.60 | 77.1 | > 5 | C[C@]12Cc3cnn(-c4ccc(F)cc4)c3C=C1CC[C@@H]2CN(CC(O)C(F)(F)F)S(=O)(=O)Cc1cccnc1 (stereo partly drawn) [Example 149, N-{[(4αR,5S)-1-(4-fluorophenyl)-4α-methyl-1,4,4α,5,6,7-hexahydrocyclopenta[f]indazol-5-yl]methyl}-1-pyridin-3-yl-N-(3,3,3-trifluoro-2-hydroxypropyl)methanesulfonamide]
38.6 | 6.47 | 86.9 | > 5 | C[C@]12Cc3cnn(-c4ccc(F)cc4)c3C=C1CC[C@@H]2CN(CCc1ccccc1CO)S(=O)(=O)CC(F)(F)F [Example 163, 2,2,2-trifluoro-N-{[(4αR,5S)-1-(4-fluorophenyl)-4α-methyl-1,4,4α,5,6,7-hexahydrocyclopenta[f]indazol-5-yl]methyl}-N-{2-[2-(hydroxymethyl)phenyl]ethyl}ethanesulfonamide]
7.2 | 6.26 | 83.3 | > 5 | CCCS(=O)(=O)N(CCc1ccccn1)C[C@H]1CCC2=Cc3c(cnn3-c3ccc(F)cc3)C[C@@]21C [Example 151, N-{[(4αR,5S)-1-(4-fluorophenyl)-4α-methyl-1,4,4α,5,6,7-hexahydrocyclopenta[f]indazol-5-yl]methyl}-N-(2-pyridin-2-ylethyl)propane-1-sulfonamide]
14.9 | 6.07 | 77.6 | > 5 | CCCS(=O)(=O)N(CC(O)C(F)(F)F)C[C@H]1CCC2=Cc3c(cnn3-c3ccc(F)cc3)C[C@@]21C (stereo partly drawn) [Example 148, N-{[(4αR,5S)-1-(4-fluorophenyl)-4α-methyl-1,4,4α,5,6,7-hexahydrocyclopenta[f]indazol-5-yl]methyl}-N-(3,3,3-trifluoro-2-hydroxypropyl)propane-1-sulfonamide]
5.2 | 6.26 | 34.1 | > 5 | COC(=O)c1ccccc1CCN(C[C@H]1CCC2=Cc3c(cnn3-c3ccc(F)cc3)C[C@@]21C)S(=O)(=O)CC(F)(F)F [Example 159, methyl 2-(2-{{[(4αR,5S)-1-(4-fluorophenyl)-4α-methyl-1,4,4α,5,6,7-hexahydrocyclopenta[f]indazol-5-yl]methyl}[(2,2,2-trifluoroethyl)sulfonyl]amino}ethyl)benzoate]
8.7 | 7.23 | 94 | > 5 | C[C@H](O)CN(C[C@H]1CCC2=Cc3c(cnn3-c3ccc(F)cc3)C[C@@]21C)S(=O)(=O)CC(F)(F)F [Example 113]
3.3 | 6.96 | 88.8 | > 5 | C[C@]12Cc3cnn(-c4ccc(F)cc4)c3C=C1CC[C@@H]2CN(CCc1ccccc1F)S(=O)(=O)Cc1ccc(Cl)cc1Cl [Example 105, 1-(2,4-dichlorophenyl)-N-[2-(2-fluorophenyl)ethyl]-N-{[(4αR,5S)-1-(4-fluorophenyl)-4α-methyl-1,4,4α,5,6,7-hexahydrocyclopenta[f]indazol-5-yl]methyl}methanesulfonamide]
42.0 | 6.36 | 101 | > 5 | C[C@]12Cc3cnn(-c4ccc(F)cc4)c3C=C1CC[C@@H]2CN(CC1(OS(=O)(=O)CC(F)(F)F)CC1)S(=O)(=O)CC(F)(F)F [Example 136, 1-({{[(4αR,5S)-1-(4-fluorophenyl)-4α-methyl-1,4,4α,5,6,7-hexahydrocyclopenta[f]indazol-5-yl]methyl}[(2,2,2-trifluoroethyl)sulfonyl]amino}methyl)cyclopropyl 2,2,2-trifluoroethanesulfonate]
19.3 | 6.49 | 88.4 | > 5 | C[C@]12Cc3cnn(-c4ccc(F)cc4)c3C=C1CC[C@@H]2CN(CCc1ccccn1)S(=O)(=O)CC(F)(F)F [Example 128, 2,2,2-trifluoro-N-{[(4αR,5S)-1-(4-fluorophenyl)-4α-methyl-1,4,4α,5,6,7-hexahydrocyclopenta[f]indazol-5-yl]methyl}-N-(2-pyridin-2-ylethyl)ethanesulfonamide]
19.2 | 6.59 | 87.9 | > 5 | C[C@]12Cc3cnn(-c4ccc(F)cc4)c3C=C1CC[C@@H]2CN(CC1(O)CC1)S(=O)(=O)CC(F)(F)F [Example 135, 2,2,2-trifluoro-N-{[(4αR,5S)-1-(4-fluorophenyl)-4α-methyl-1,4,4α,5,6,7-hexahydrocyclopenta[f]indazol-5-yl]methyl}-N-[(1-hydroxycyclopropyl)methyl]ethanesulfonamide]
1.3 | 6.60 | 100 | > 5 | C[C@]12Cc3cnn(-c4ccc(F)cc4)c3C=C1CC[C@@H]2CN(CCc1ccccc1F)S(=O)(=O)Cc1cccnc1 [Example 124, N-[2-(2-fluorophenyl)ethyl]-N-{[(4αR,5S)-1-(4-fluorophenyl)-4α-methyl-1,4,4α,5,6,7-hexahydrocyclopenta[f]indazol-5-yl]methyl}-1-pyridin-3-ylmethanesulfonamide]
48.7 | 6.21 | 66.5 | > 5 | C[C@]12Cc3cnn(-c4ccc(F)cc4)c3C=C1CC[C@@H]2CN(CC(O)C(F)F)S(=O)(=O)Cc1cccnc1 (stereo partly drawn) [Example 154, N-(3,3-difluoro-2-hydroxypropyl)-N-{[(4αR,5S)-1-(4-fluorophenyl)-4α-methyl-1,4,4α,5,6,7-hexahydrocyclopenta[f]indazol-5-yl]methyl}-1-pyridin-3-ylmethanesulfonamide]
7.7 | 6.65 | 91.2 | > 5 | C[C@]12Cc3cnn(-c4ccc(F)cc4)c3C=C1CC[C@@H]2CN(CC(O)c1cccnc1)S(=O)(=O)CC(F)(F)F (stereo partly drawn) [Example 143, 2,2,2-trifluoro-N-{[(4αR,5S)-1-(4-fluorophenyl)-4α-methyl-1,4,4α,5,6,7-hexahydrocyclopenta[f]indazol-5-yl]methyl}-N-(2-hydroxy-2-pyridin-3-ylethyl)ethanesulfonamide]
36.0 | 6.00 | 49 | > 5 | CC(=O)Nc1ccc(S(=O)(=O)N(CC2CC2)C[C@H]2CCC3=Cc4c(cnn4-c4ccc(F)cc4)C[C@@]32C)cc1 [Example 6, N-{4-[((cyclopropylmethyl){[(4αR,5S)-1-(4-fluorophenyl)-4α-methyl-1,4,4α,5,6,7-hexahydrocyclopenta[f]indazol-5-yl]methyl}amino)sulfonyl]phenyl}acetamide]
3.7 | 6.69 | 90.8 | > 5 | COC(=O)c1ccccc1CS(=O)(=O)N(CC(O)C(F)(F)F)C[C@H]1CCC2=Cc3c(cnn3-c3ccc(F)cc3)C[C@@]21C (stereo partly drawn) [Example 162, methyl 2-({[{[(4αR,5S)-1-(4-fluorophenyl)-4α-methyl-1,4,4α,5,6,7-hexahydrocyclopenta[f]indazol-5-yl]methyl}(3,3,3-trifluoro-2-hydroxypropyl)amino]sulfonyl}methyl)benzoate]
7.7 | 6.75 | 76.5 | > 5 | CC(C)CS(=O)(=O)N(CCc1ccccc1F)C[C@H]1CCC2=Cc3c(cnn3-c3ccc(F)cc3)C[C@@]21C [Example 103, N-[2-(2-fluorophenyl)ethyl]-N-{[(4αR,5S)-1-(4-fluorophenyl)-4α-methyl-1,4,4α,5,6,7-hexahydrocyclopenta[f]indazol-5-yl]methyl}-2-methylpropane-1-sulfonamide]
